Literature values as cited in US20080090885A1 (priority 2006, published 2008).

Legend:
AT1 receptor = molecular target: T1, AT1 receptor (Homo sapiens, UniProt P30556)
T1 sequence (P30556 1-359): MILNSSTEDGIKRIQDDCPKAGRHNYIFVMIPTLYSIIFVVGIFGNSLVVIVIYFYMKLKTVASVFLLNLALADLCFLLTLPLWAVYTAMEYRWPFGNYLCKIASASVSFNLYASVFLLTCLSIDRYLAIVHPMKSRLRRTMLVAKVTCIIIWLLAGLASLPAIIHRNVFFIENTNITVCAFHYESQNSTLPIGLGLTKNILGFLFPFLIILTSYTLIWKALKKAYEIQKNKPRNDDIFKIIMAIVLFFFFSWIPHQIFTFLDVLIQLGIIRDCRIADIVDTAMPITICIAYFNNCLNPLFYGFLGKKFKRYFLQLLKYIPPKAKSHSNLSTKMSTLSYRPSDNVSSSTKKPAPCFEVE

[1] = for half-life: in vivo

For CCCCc1nc(Cl)c(C(=O)O)n1Cc1ccc(-c2ccccc2-c2nn[nH]n2)cc1 [EXP-3174, losartan 5-carboxylic acid], the “type of AT1 receptor antagonism” value (AT1 receptor) is given as “non-competitive AT1 receptor antagonist” and the half-life [1] is given as 6 to 9 h.
In the case of CCCCc1nc(Cl)c(CO)n1Cc1ccc(-c2ccccc2-c2nn[nH]n2)cc1 [Losartan], the “type of AT1 receptor antagonism” value (AT1 receptor) is given as “potent, competitive AT1 receptor antagonist”, the half-life [1] is given as “about 2 hours” and the oral bioavailability ([1]; oral) is given as “about 33%”. For the same compound, the “peak plasma levels (time to peak)” value ([1]; oral) was 1 h.
